Experiment [1] relates to Escherichia coli. The experiment is described as follows: Induction of Escherichia coli supercoiled pBR322 DNA cleavage at 50 uM after 24 hrs at 25 degC by agarose gel electrophoresis.
A short description of experiment [2]: Induction of alkylation of 5'-FAM-labelled scrambled duplex oligonucleotide DNA (unknown origin) at guanine residues G1 to G4 at 50 uM after 24 hrs by sequencing gel analysis.
The subject of experiment [3] is Escherichia coli. The experiment is described as follows: Induction of Escherichia coli supercoiled pBR322 DNA cleavage assessed as formation of open circular form of DNA after 24 hrs at 25 degC by agarose gel electrophoresis.
For experiment [4], the system named is Escherichia coli. The experiment is described as follows: Induction of Escherichia coli supercoiled pBR322 DNA cleavage assessed as formation of linear form of DNA at 0.5 to 50 uM after 24 hrs at 25 degC by agarose gel electrophoresis.
Experiment [5] in a line: Induction of alkylation of 5'-FAM-labelled scrambled duplex oligonucleotide DNA (unknown origin) at guanine residues G1 to G4 at 5 to 50 uM after 24 hrs by sequencing gel analysis.
Experiment [6] in a line: Induction of alkylation of 5'-FAM-labelled scrambled duplex oligonucleotide DNA (unknown origin) at guanine residues G1 to G4 after 24 hrs by sequencing gel analysis.

Activity calls are given as the source filed them. The rule behind the calls is not given here.

Here are results for four compounds from ChEMBL document CHEMBL3621105, “Synthesis and evaluation of a bis-3-chloropiperidine derivative incorporating an anthraquinone pharmacophore” (Bioorg Med Chem Lett, 2015).

As for `O=C(O)CCCc1ccc(N(CCCl)CCCl)cc1`, the result (in the experiment on Escherichia coli [1]; in experiment [2]) was inactive.
In the case of `CC1(C)CC(Cl)CN(CCCC[C@@H](C(=O)OCc2ccc3c(c2)C(=O)c2ccccc2C3=O)N2CC(Cl)CC(C)(C)C2)C1` (some centres not stated), the Activity entry with Escherichia coli [3] was “Dose-dependent effect”. For the same compound, the result with Escherichia coli [4] was inactive. Also, the result in experiment [5] was Active.
As for `CC1(C)CC(Cl)CN(CCCC[C@@H](C(=O)Oc2cccc3ccccc23)N2CC(Cl)CC(C)(C)C2)C1` (some centres not stated), the Activity result in experiment [6] is “Dose-dependent effect”.
On the same count and under the same terms, the value for `COc1ccc(OC(=O)[C@H](CCCCN2CC(Cl)CC(C)(C)C2)N2CC(Cl)CC(C)(C)C2)c2ccccc12` (some centres not stated) was “Dose-dependent effect”.
